In PubChem BioAssay (NCI):
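Interpolation was linear, between the two tested concentrations surrounding the appropriate level; five concentrations were tested over 48 hours in 96-well plates. Here, GI50 denotes the concentration required for 50% inhibition of growth. The concentration for full growth arrest is given as TGI.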

What was measured:
Experiment in all cases: NCI tumour cell line growth inhibition, 48 h; in the data active means GI50 below about 0.43 µM; inactive means the rest
SNB-19 CNS = test system: SNB-19 CNS
MDA-MB-435 = test system: MDA-MB-435
786-0 renal = test system: 786-0 renal
SF-295 CNS = test system: SF-295 CNS
LOX IMVI melanoma = test system: LOX IMVI melanoma
CCRF-CEM leukemia = test system: CCRF-CEM leukemia
M14 melanoma = test system: M14 melanoma
U251 CNS = test system: U251 CNS
A498 renal = test system: A498 renal
SK-OV-3 ovarian = test system: SK-OV-3 ovarian
T-47D breast = test system: T-47D breast
PC-3 prostate = test system: PC-3 prostate
K-562 leukemia = test system: K-562 leukemia
RXF 393 renal = test system: RXF 393 renal
MDA-MB-231 breast = test system: MDA-MB-231 breast
NCI/ADR-RES ovarian = test system: NCI/ADR-RES ovarian
UACC-257 melanoma = test system: UACC-257 melanoma
NCI-H23 lung = test system: NCI-H23 lung
NCI-H460 lung = test system: NCI-H460 lung
TK-10 renal = test system: TK-10 renal
OVCAR-3 ovarian = test system: OVCAR-3 ovarian
SK-MEL-28 melanoma = test system: SK-MEL-28 melanoma
UACC-62 melanoma = test system: UACC-62 melanoma
ACHN renal = test system: ACHN renal
SK-MEL-5 melanoma = test system: SK-MEL-5 melanoma
MALME-3M melanoma = test system: MALME-3M melanoma
SN12C renal = test system: SN12C renal
SF-268 CNS = test system: SF-268 CNS
HCT-116 colon = test system: HCT-116 colon
HT29 colon = test system: HT29 colon
IGROV1 ovarian = test system: IGROV1 ovarian
UO-31 renal = test system: UO-31 renal
OVCAR-8 ovarian = test system: OVCAR-8 ovarian
A549 NSCLC = test system: A549 NSCLC
SF-539 CNS = test system: SF-539 CNS
SW-620 colon = test system: SW-620 colon
HS 578T breast = test system: HS 578T breast
BT-549 breast = test system: BT-549 breast
CAKI-1 renal = test system: CAKI-1 renal
MOLT-4 leukemia = test system: MOLT-4 leukemia
DU-145 prostate = test system: DU-145 prostate
HCC-2998 colon = test system: HCC-2998 colon
EKVX NSCLC = test system: EKVX NSCLC
NCI-H522 lung = test system: NCI-H522 lung
OVCAR-4 ovarian = test system: OVCAR-4 ovarian
HOP-62 NSCLC = test system: HOP-62 NSCLC
HCT-15 colon = test system: HCT-15 colon
COLO 205 colon = test system: COLO 205 colon
SNB-75 CNS = test system: SNB-75 CNS
MDA-N = test system: MDA-N
KM12 colon = test system: KM12 colon
HOP-92 NSCLC = test system: HOP-92 NSCLC
MCF7 breast = test system: MCF7 breast
OVCAR-5 ovarian = test system: OVCAR-5 ovarian
NCI-H226 lung = test system: NCI-H226 lung
SK-MEL-2 melanoma = test system: SK-MEL-2 melanoma
RPMI-8226 leukemia = test system: RPMI-8226 leukemia
SR leukemia = test system: SR leukemia
HL-60(TB) leukemia = test system: HL-60(TB) leukemia

c1cc(C[S+]2CCCC2)oc1C[S+]1CCCC1
> 100 µM: TGI (SNB-19 CNS) | TGI (MDA-MB-435) | TGI (786-0 renal) | TGI (SF-295 CNS) | TGI (LOX IMVI melanoma) | TGI (CCRF-CEM leukemia) | TGI (M14 melanoma) | TGI (U251 CNS) | TGI (A498 renal) | TGI (SK-OV-3 ovarian) | TGI (T-47D breast) | TGI (PC-3 prostate) | TGI (K-562 leukemia) | TGI (RXF 393 renal) | TGI (MDA-MB-231 breast) | TGI (NCI/ADR-RES ovarian) | TGI (UACC-257 melanoma) | TGI (NCI-H23 lung) | TGI (NCI-H460 lung) | TGI (TK-10 renal) | TGI (OVCAR-3 ovarian) | TGI (SK-MEL-28 melanoma) | TGI (UACC-62 melanoma) | TGI (ACHN renal) | TGI (SK-MEL-5 melanoma) | TGI (MALME-3M melanoma) | TGI (SN12C renal) | TGI (SF-268 CNS) | TGI (HCT-116 colon) | TGI (HT29 colon) | TGI (IGROV1 ovarian) | TGI (UO-31 renal) | TGI (OVCAR-8 ovarian) | TGI (A549 NSCLC) | TGI (SF-539 CNS) | TGI (SW-620 colon) | TGI (HS 578T breast) | TGI (BT-549 breast) | TGI (CAKI-1 renal) | TGI (MOLT-4 leukemia) | TGI (DU-145 prostate) | TGI (HCC-2998 colon) | TGI (EKVX NSCLC) | TGI (NCI-H522 lung) | TGI (OVCAR-4 ovarian) | TGI (HOP-62 NSCLC) | TGI (HCT-15 colon) | TGI (COLO 205 colon) | TGI (SNB-75 CNS) | TGI (MDA-N)

Cn1nc(C(=O)N2CC(CCl)c3c2cc([N+](=O)[O-])c2ccccc32)cc1NC(=O)Nc1cc(C(=O)N2CC(CCl)c3c2cc([N+](=O)[O-])c2ccccc32)nn1C (stereo not given)
70.2 µM: TGI (SF-539 CNS)
> 100 µM: TGI (KM12 colon) | TGI (SNB-19 CNS) | TGI (HOP-92 NSCLC) | TGI (MDA-MB-435) | TGI (786-0 renal) | TGI (SF-295 CNS) | TGI (M14 melanoma) | TGI (MCF7 breast) | TGI (U251 CNS) | TGI (A498 renal) | TGI (SK-OV-3 ovarian) | TGI (T-47D breast) | TGI (PC-3 prostate) | TGI (K-562 leukemia) | TGI (MDA-MB-231 breast) | TGI (NCI/ADR-RES ovarian) | TGI (UACC-257 melanoma) | TGI (NCI-H23 lung) | TGI (NCI-H460 lung) | TGI (TK-10 renal) | TGI (OVCAR-3 ovarian) | TGI (SK-MEL-28 melanoma) | TGI (UACC-62 melanoma) | TGI (ACHN renal) | TGI (SK-MEL-5 melanoma) | TGI (MALME-3M melanoma) | TGI (SN12C renal) | TGI (SF-268 CNS) | TGI (HCT-116 colon) | TGI (UO-31 renal) | TGI (A549 NSCLC) | TGI (BT-549 breast) | TGI (OVCAR-5 ovarian) | TGI (CAKI-1 renal) | TGI (MOLT-4 leukemia) | TGI (DU-145 prostate) | TGI (HCC-2998 colon) | TGI (EKVX NSCLC) | TGI (NCI-H226 lung) | TGI (NCI-H522 lung) | TGI (OVCAR-4 ovarian) | TGI (HOP-62 NSCLC) | TGI (SK-MEL-2 melanoma) | TGI (HCT-15 colon) | TGI (COLO 205 colon) | TGI (SNB-75 CNS) | TGI (RPMI-8226 leukemia) | TGI (MDA-N)

O=C1COCCN1c1ccc(NCc2cn(C(=O)c3ccc(Cl)cc3)c3ccccc23)cc1
53.7 µM: TGI (BT-549 breast)
18.8 µM: TGI (OVCAR-4 ovarian)
8.51 µM: TGI (IGROV1 ovarian)
21.8 µM: TGI (COLO 205 colon)
3.37 µM: TGI (UACC-62 melanoma)
19.8 µM: TGI (LOX IMVI melanoma) | TGI (HCT-116 colon)
24.9 µM: TGI (MALME-3M melanoma)
52.6 µM: TGI (SNB-75 CNS)
35.9 µM: TGI (NCI-H522 lung)
33.5 µM: TGI (SF-295 CNS)
12.7 µM: TGI (NCI-H460 lung)
inactive: GI50 (KM12 colon) 13.7 µM | GI50 (SNB-19 CNS) 20.8 µM | GI50 (SR leukemia) 3.08 µM | GI50 (HOP-92 NSCLC) 1.66 µM | GI50 (MDA-MB-435) 16.4 µM | GI50 (786-0 renal) 2.7 µM | GI50 (SF-295 CNS) 1.83 µM | GI50 (LOX IMVI melanoma) 5.53 µM | GI50 (CCRF-CEM leukemia) 5.62 µM | GI50 (M14 melanoma) 7.92 µM | GI50 (U251 CNS) 1.19 µM | GI50 (SK-OV-3 ovarian) 2.27 µM | GI50 (PC-3 prostate) 4.78 µM | GI50 (K-562 leukemia) 1.84 µM | GI50 (RXF 393 renal) 3.09 µM | GI50 (MDA-MB-231 breast) 4.61 µM | GI50 (NCI/ADR-RES ovarian) 5.77 µM | GI50 (NCI-H23 lung) 3.79 µM | GI50 (OVCAR-3 ovarian) 1.21 µM | GI50 (SK-MEL-28 melanoma) 17.8 µM | GI50 (ACHN renal) 3.79 µM | GI50 (SK-MEL-5 melanoma) 4.1 µM | GI50 (MALME-3M melanoma) 7.96 µM | GI50 (SN12C renal) 4.96 µM | GI50 (SF-268 CNS) 13.4 µM | GI50 (HT29 colon) 3.79 µM | GI50 (UO-31 renal) 2.09 µM | GI50 (OVCAR-8 ovarian) 5.04 µM | GI50 (A549 NSCLC) 3.36 µM | GI50 (SF-539 CNS) 8.49 µM | GI50 (SW-620 colon) 2.23 µM | GI50 (HS 578T breast) 3.86 µM | GI50 (BT-549 breast) 4.37 µM | GI50 (HL-60(TB) leukemia) 4.97 µM | GI50 (MOLT-4 leukemia) 5.66 µM | GI50 (DU-145 prostate) 8.76 µM | GI50 (HCC-2998 colon) 12.1 µM | GI50 (EKVX NSCLC) 17.2 µM | GI50 (NCI-H522 lung) 5.12 µM | GI50 (OVCAR-4 ovarian) 0.494 µM | GI50 (HOP-62 NSCLC) 1.06 µM | GI50 (SK-MEL-2 melanoma) 2.19 µM | GI50 (HCT-15 colon) 4.07 µM | GI50 (COLO 205 colon) 3.28 µM | GI50 (SNB-75 CNS) 2.6 µM | GI50 (RPMI-8226 leukemia) 2.13 µM
17 µM: TGI (K-562 leukemia)
55.8 µM: TGI (NCI/ADR-RES ovarian)
69.3 µM: TGI (SN12C renal)
15 µM: TGI (HOP-92 NSCLC) | TGI (MCF7 breast)
39.1 µM: TGI (HS 578T breast)
0.142 µM: TGI (A498 renal)
27.5 µM: TGI (ACHN renal)
80.9 µM: TGI (SK-MEL-28 melanoma)
22.9 µM: TGI (MDA-MB-231 breast)
active: GI50 (MCF7 breast) 0.293 µM | GI50 (A498 renal) 0.0306 µM | GI50 (T-47D breast) 0.264 µM | GI50 (UACC-257 melanoma) 0.276 µM | GI50 (NCI-H460 lung) 0.268 µM | GI50 (TK-10 renal) 0.148 µM | GI50 (UACC-62 melanoma) 0.396 µM | GI50 (HCT-116 colon) 0.247 µM | GI50 (IGROV1 ovarian) 0.252 µM | GI50 (OVCAR-5 ovarian) 0.187 µM | GI50 (CAKI-1 renal) 0.0531 µM | GI50 (NCI-H226 lung) 0.159 µM
1.7 µM: TGI (UACC-257 melanoma)
95.1 µM: TGI (SF-268 CNS)
0.543 µM: TGI (NCI-H226 lung)
88.4 µM: TGI (HCC-2998 colon)
26.2 µM: TGI (SF-539 CNS)
49.5 µM: TGI (PC-3 prostate)
1.8 µM: TGI (CAKI-1 renal)
0.622 µM: TGI (OVCAR-5 ovarian)
52.1 µM: TGI (NCI-H23 lung)
> 100 µM: TGI (KM12 colon) | TGI (SNB-19 CNS) | TGI (SR leukemia) | TGI (786-0 renal) | TGI (CCRF-CEM leukemia) | TGI (M14 melanoma) | TGI (HT29 colon) | TGI (OVCAR-8 ovarian) | TGI (A549 NSCLC) | TGI (SW-620 colon) | TGI (DU-145 prostate) | TGI (EKVX NSCLC) | TGI (HOP-62 NSCLC)
18.3 µM: TGI (RXF 393 renal)
25.8 µM: TGI (U251 CNS)
15.3 µM: TGI (SK-MEL-2 melanoma)
16.3 µM: TGI (SK-MEL-5 melanoma)
16.5 µM: TGI (UO-31 renal)
83.8 µM: TGI (T-47D breast)
91.2 µM: TGI (HCT-15 colon)
12.5 µM: TGI (OVCAR-3 ovarian)
50.1 µM: TGI (MDA-MB-435)
92.1 µM: TGI (SK-OV-3 ovarian)
20.9 µM: TGI (HL-60(TB) leukemia)
2.18 µM: TGI (TK-10 renal)
47.8 µM: TGI (MOLT-4 leukemia)
15.8 µM: TGI (RPMI-8226 leukemia)
